# Laboratory results reported in PubChem BioAssay (NCI).
#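 Following 48 hours of exposure in 96-well plates, responses at five concentrations were used to interpolate endpoints linearly. The concentration for full growth arrest is given as TGI.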
# Columns and labels:
# Experiment in all cases: DTP human tumour cell line panel, 48 h
# [1] = test system: OVCAR-8 ovarian
# [2] = test system: SR leukemia
# [3] = test system: HT29 colon
# [4] = test system: OVCAR-5 ovarian
# [5] = test system: A549 NSCLC
# [6] = test system: RPMI-8226 leukemia
# [7] = test system: 786-0 renal
# [8] = test system: DU-145 prostate
# [9] = test system: NCI-H522 lung
# [10] = test system: KM12 colon
# [11] = test system: MDA-MB-231 breast
# [12] = test system: U251 CNS
# [13] = test system: EKVX NSCLC
# [14] = test system: COLO 205 colon
# [15] = test system: UO-31 renal
# [16] = test system: SF-268 CNS
# [17] = test system: T-47D breast
# [18] = test system: NCI-H23 lung
# [19] = test system: NCI/ADR-RES ovarian
# [20] = test system: NCI-H226 lung
# [21] = test system: LOX IMVI melanoma
# [22] = test system: SK-OV-3 ovarian
# [23] = test system: SK-MEL-5 melanoma
# [24] = test system: CCRF-CEM leukemia
# [25] = test system: SN12C renal
# [26] = test system: ACHN renal
# [27] = test system: MDA-MB-435
# [28] = test system: A498 renal
# [29] = test system: HCT-15 colon
# [30] = test system: UACC-257 melanoma
# [31] = test system: IGROV1 ovarian
# [32] = test system: NCI-H460 lung
# [33] = test system: SK-MEL-2 melanoma
# [34] = test system: SW-620 colon
# [35] = test system: CAKI-1 renal
# [36] = test system: RXF 393 renal
# [37] = test system: MALME-3M melanoma
# [38] = test system: HOP-92 NSCLC
# [39] = test system: TK-10 renal
# [40] = test system: K-562 leukemia
# [41] = test system: HOP-62 NSCLC
# [42] = test system: SF-539 CNS
# [43] = test system: PC-3 prostate
# [44] = test system: SF-295 CNS
# [45] = test system: HL-60(TB) leukemia
# [46] = test system: HCC-2998 colon
# [47] = test system: SK-MEL-28 melanoma
# [48] = test system: MOLT-4 leukemia
# [49] = test system: UACC-62 melanoma
# [50] = test system: HS 578T breast
# [51] = test system: HCT-116 colon
# [52] = test system: SNB-19 CNS
# [53] = test system: OVCAR-4 ovarian
# [54] = test system: SNB-75 CNS
# [55] = test system: MCF7 breast
# [56] = test system: M14 melanoma
compound,measurement,setting,value
O=C(N=C1N(c2ccccc2)C(=O)C(=O)N1c1ccccc1)c1ccccc1,TGI,[1],29.6 µM
same,TGI,[2],41.4 µM
same,TGI,[3],40.9 µM
same,TGI,[4],> 100 µM
same,TGI,[5],20.2 µM
same,TGI,[6],74.9 µM
same,TGI,[7],12.5 µM
same,TGI,[8],43.5 µM
same,TGI,[9],6.23 µM
same,TGI,[10],46.9 µM
same,TGI,[11],18.6 µM
same,TGI,[12],24.4 µM
same,TGI,[13],32.1 µM
same,TGI,[14],30 µM
same,TGI,[15],29 µM
same,TGI,[16],50.5 µM
same,TGI,[17],56.5 µM
same,TGI,[18],33.6 µM
same,TGI,[19],25.8 µM
same,TGI,[20],29.2 µM
same,TGI,[21],13.6 µM
same,TGI,[22],19.6 µM
same,TGI,[23],32 µM
same,TGI,[24],> 100 µM
same,TGI,[25],24.1 µM
same,TGI,[26],14.3 µM
same,TGI,[27],99.2 µM
same,TGI,[28],39.9 µM
same,TGI,[29],22.4 µM
same,TGI,[30],> 100 µM
same,TGI,[31],23.5 µM
same,TGI,[32],25.8 µM
same,TGI,[33],36.9 µM
same,TGI,[34],28.4 µM
same,TGI,[35],31.4 µM
same,TGI,[36],13.5 µM
same,TGI,[37],38.4 µM
same,TGI,[38],20.8 µM
same,TGI,[39],33.2 µM
same,TGI,[40],> 100 µM
same,TGI,[41],23.7 µM
same,TGI,[42],26.6 µM
same,TGI,[43],50.6 µM
same,TGI,[44],25.3 µM
same,TGI,[45],> 100 µM
same,TGI,[46],23.3 µM
same,TGI,[47],38.1 µM
same,TGI,[48],> 100 µM
same,TGI,[49],30.2 µM
same,TGI,[50],27.2 µM
same,TGI,[51],14.4 µM
same,TGI,[52],28.1 µM
same,TGI,[53],13.3 µM
same,TGI,[54],25.1 µM
O=C1CC(c2ccccc2Cl)Oc2ccccc21 (configuration not stated),TGI,[1],87.1 µM
same,TGI,[2],50.9 µM
same,TGI,[3],22.7 µM
same,TGI,[6],40.7 µM
same,TGI,[7],89.5 µM
same,TGI,[8],> 100 µM
same,TGI,[10],81.7 µM
same,TGI,[11],47.4 µM
same,TGI,[12],83 µM
same,TGI,[13],> 100 µM
same,TGI,[14],68.2 µM
same,TGI,[15],> 100 µM
same,TGI,[16],> 100 µM
same,TGI,[17],> 100 µM
same,TGI,[19],48.8 µM
same,TGI,[20],30.1 µM
same,TGI,[21],> 100 µM
same,TGI,[22],> 100 µM
same,TGI,[23],> 100 µM
same,TGI,[55],45.4 µM
same,TGI,[56],> 100 µM
same,TGI,[24],> 100 µM
same,TGI,[27],43.7 µM
same,TGI,[28],> 100 µM
same,TGI,[29],61 µM
same,TGI,[30],> 100 µM
same,TGI,[31],> 100 µM
same,TGI,[32],> 100 µM
same,TGI,[33],59.9 µM
same,TGI,[34],67.5 µM
same,TGI,[35],> 100 µM
same,TGI,[36],63.5 µM
same,TGI,[38],75.2 µM
same,TGI,[39],> 100 µM
same,TGI,[40],40.8 µM
same,TGI,[41],91.1 µM
same,TGI,[42],34.8 µM
same,TGI,[43],> 100 µM
same,TGI,[44],> 100 µM
same,TGI,[45],> 100 µM
same,TGI,[46],> 100 µM
same,TGI,[47],> 100 µM
same,TGI,[49],> 100 µM
same,TGI,[50],> 100 µM
same,TGI,[51],> 100 µM
same,TGI,[52],> 100 µM
same,TGI,[53],> 100 µM
same,TGI,[54],> 100 µM
